Test results reported in patent publication US5525623A, “Compositions and methods for the treatment of immunomediated inflammatory disorders” (Arris Pharmaceutical Corporation, priority 1994, dated 1996).

Key:
Tryptase [1] = target: T1, Tryptase (Homo sapiens, UniProt Q15661); assay: In Vitro Tryptase Inhibition Assay (hydrolysis of tosyl-GlyProLys-p-nitroanilide, Tris-HCl pH 8.2); type: biochemical
Procedure: Table II lists the inhibition constants (Ki ', micromolar (μM)) which were determined for several of the compounds of the present invention, wherein R^1 is hydrogen; R^2 is hydrogen; R^3 is --(CH2)3 --NH--(C=NH)--NH2; R^4 and R^5, together with the nitrogen and carbon to which they are attached form a five-membered heterocycle; and R^6 is hydrogen. […] Unlike Ki, Ki ' may not be a true dissociation constant of the enzyme-inhibitor complex; Ki ' is equal to Ki for a noncompetitive inhibitor and is directly proportional to Ki for competitive and uncompetitive inhibitors.
Generally, the assay conditions are light sensitive and variations in ambient light intensity may affect assay reproducibility. As a result of this potential source of error, some assays were run under dark conditions. The Ki 's reported in Tables II and III without parentheses were determined under conditions of ambient light. Ki 's reported with parentheses were determined under "dark" conditions as defined above.

Tryptase [2] = target: T1, Tryptase; assay: biochemical; settings: for Ki: Table IV
Procedure: Compounds (approx. 1 mg) to be assayed against tryptase were reconstituted in dimethylsulfoxide (DMSO) and diluted 1:10 into buffer containing 50 millimolar (mM) Tris-HCl at pH 8.2, and containing 100 mM NaCl, 0.05% Tween-20. Seven additional 3-fold dilutions were made from the initial dilution into the same buffer supplemented with 10% DMSO. Aliquots (50 μl) from each of the eight dilutions in the series were transferred to individual wells in a 96-well U-bottom microtiter plate. Tryptase (25 μl; 0.5 nM final concentration) was added to each well and the samples were mixed and incubated for 1 hr at room temperature under either ambient light (i.e., the light available in the room during the experiment) or under controlled "light" or "dark" conditions. "Light conditions" refers herein to a light intensity of 400-450 footcandles from a fluorescent bulb. "Dark" refers herein to sample containers wrapped in aluminum foil. The enzyme reaction was then initiated with the addition of the synthetic tripeptide substrate, tosyl-GlyProLys-p-nitroanilide (25 μl; 0.5 mM final concentration). The microtiter plates were immediately transferred to a UV/MAX Kinetic Microplate Reader (Molecular Devices) and hydrolysis of the chromogenic substrate was followed spectrophotometrically at […] for 5 minutes. […] Initial velocity measurements, calculated from progress curves by a kinetic analysis program called "BatchKi" (available commercially from Biokin Ltd., of Madison Wis.), were used to determine apparent inhibition constants for each inhibitor. This program is designed to perform regressions and curve-fitting of non-linear data.
Compound 3 was assayed against tryptase at four different pH's in the following buffer system: 120 mM NaCl, 2.7 mM KCl, 0.13 mM NaH2 PO4, 0.896 mM Na2 HPO4. The final buffer system used included 0.05% of Tween-20.
Thus, the assay procedure described above was performed wherein the dilution of Compound 3 and the addition of tryptase was done under ambient light at room temperature (22°-26° C.). The assay plate was wrapped in aluminum foil for a 1-hr incubation before substrate addition, which was also done under ambient light.

allergic sheep [3] = assay: Allergic sheep model of asthma: specific lung resistance (SRL) after antigen challenge; type: in vivo; settings: 9 mg aerosol 0.5 h before, 4 h and 24 h after antigen challenge
Procedure: (§1) The initial asthmatic response can be evaluated in guinea pigs, and dogs, and particularly, with a basenji-greyhound cross strain which develops nonspecific airway hyperresponsiveness to numerous nonallergenic substances, such as methacholine and citric acid. […] In dual responding animals, the initial asthmatic response (IAR) is followed by a late asthmatic response (LAR) at 6-8 hours post-exposure.
(§2) The allergic sheep model was used to evaluate the potential antiasthmatic effects of the compounds of the present invention.
(§3) The allergic sheep model of asthma was employed in these studies. These methods have been published previously (see Abraham et al. (1983) Am. Rev. Respir. Dis. 128:839-844; Allegra et al. (1983) J. Appl. Physiol. 55:726-730; Russi et al. (1985) J. Appl. Physiol. 59:1416-1422; Soler et al. ((1989) J. Appl. Physiol. 67:406-413. Each sheep served as its own control. Body weights for these animals ranged from 20-50 kilograms.
(§4) In these studies, 9 mg of Compound 3 of Tables I and II was dissolved in 3 mL buffered saline and the total solution delivered as an aerosol 0.5 hours before, 4 hours after, and 24 hours after antigen challenge (total dose=27; n=6). In the control (vehicle only) trial, antigen challenge caused peak early and late increases above baseline in specific lung resistance (SRL) of 374±104% and 212±21% (mean±SE). In contrast, when the sheep were treated with Compound 3 of Tables I and II, the early and late increases in SRL were 280±39% and 72±9% (p <0.05 vs. control, Wilcoxon signed rank test). The peak early response was taken as the average of the maximum values occurring immediately post-challenge. Peak late responses were calculated by averaging the maximum response values obtained for each animal within the 6-8 hour time period. This approach is conservative and eliminates the possible reduction in the late response due simply to averaging.

allergic sheep [4] = assay: Allergic sheep model: airway hyperresponsiveness to carbachol (PC400) 24 hours after antigen challenge; type: in vivo
Procedure: as §1, §2, §3, §4
Twenty-four hours after antigen challenge in both the control and drug trial, the sheep developed airway hyperresponsiveness. […] Baseline PC400 was 22.0±3.7 breath units in the control trial, falling to 9.1±1.3 breath units after antigen challenge (p<0.05 vs. baseline).

[5] = Table III, asterisk: "light" conditions, 400-450 footcandles
[6] = Table III, parentheses: "dark" conditions (aluminum foil)
[7] = Table II, ambient light (no parentheses)
[8] = Table II, asterisk: "light" conditions, 400-450 footcandles
[9] = Table II, parentheses: "dark" conditions (aluminum foil)

T1 sequence (Q15661 31-275): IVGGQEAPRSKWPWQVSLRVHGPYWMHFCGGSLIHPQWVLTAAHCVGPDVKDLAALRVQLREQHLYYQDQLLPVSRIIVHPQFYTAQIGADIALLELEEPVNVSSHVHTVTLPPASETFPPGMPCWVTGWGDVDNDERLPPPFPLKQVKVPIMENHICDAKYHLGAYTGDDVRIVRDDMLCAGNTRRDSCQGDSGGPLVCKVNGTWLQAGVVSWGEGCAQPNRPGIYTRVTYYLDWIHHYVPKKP

SMILES	Ki (Tryptase [1]; [7])	Ki (Tryptase [1]; [8])	Ki (Tryptase [1]; [9])	also measured
N=C(N)NCCC[C@H](NC(=O)c1ccc2ccccc2c1O)C(=O)N1C[C@H](O)C[C@H]1C(N)=O [Compound 11]				Ki (Tryptase [1]; [5]): 0.3 µM; Ki (Tryptase [1]; [6]): 40 µM
N=C(N)NCCC[C@H](NC(=O)c1ccc2ccccc2c1O)C(=O)N1CCC[C@@H]1C(N)=O [Compound 12]				Ki (Tryptase [1]; [5]): 2.5 µM; Ki (Tryptase [1]; [6]): 818 µM
CN(CC(N)=O)C(=O)[C@H](CCCNC(=N)N)NC(=O)c1c(O)ccc2ccccc12 [Compound 1]				Ki (Tryptase [1]; [5]): 3 µM; Ki (Tryptase [1]; [6]): 637 µM
Cc1ccc2c(O)c(C(=O)N[C@@H](CCCNC(=N)N)C(=O)N3CCC[C@H]3C(N)=O)cnc2n1 [Compound 17]	900 µM			
N=C(N)NCCC[C@H](NC(=O)c1ccc2ccccc2c1O)C(=O)N1CCC[C@H]1C(N)=O [Compound 3, 1-hydroxy-2-naphthoyl-L-arginyl-L-proline amide]		0.3 µM	82 µM	sensitivity to light in the buffer system (Tryptase [2]; 120 mM NaCl, 2.7 mM KCl, 0.13 mM NaH2PO4, 0.896 mM Na2HPO4, 0.05% Tween-20, pH 7.5): less sensitive to light; Ki (Tryptase [2]; pH 6.5): 14 µM; Ki (Tryptase [2]; pH 7.0): 8 µM; Ki (Tryptase [2]; pH 7.5): 5.4 µM; Ki (Tryptase [2]; pH 8.0): 6.1 µM; effect on early response (allergic sheep [3]): exhibited a tendency to reduce the early response; effect on late response (allergic sheep [3]; FIG. 1): attenuated the late response; late increase in SRL (peak late response above baseline, 6-8 hours) (allergic sheep [3]; n=6, mean±SE, control 212±21%, p <0.05 vs. control): 72±9%; early increase in SRL (peak early response above baseline) (allergic sheep [3]; n=6, mean±SE, control 374±104%): 280±39%; effect on 24 hour hyperresponsiveness (allergic sheep [4]; 24 h after antigen challenge, FIG. 2): blocked the 24 hour hyperresponsiveness; PC400, after antigen challenge (allergic sheep [4]; drug trial, 24 h after antigen challenge, control 9.1±1.3): 17.6±3.5 breath units; PC400 change relative to baseline (allergic sheep [4]; drug trial, after antigen challenge vs. baseline): unchanged relative to baseline; PC400, baseline (allergic sheep [4]; drug trial, baseline (before antigen challenge), control baseline 22.0±3.7): 16.0±3.8 breath units; airway function in allergen challenged sheep (allergic sheep [4]; treatment with Compound 3, allergen challenged sheep): statistically significant improvement in airway function
N=C(N)NCCC[C@H](NC(=O)c1cc(-c2ccccc2)ccc1O)C(=O)N1CCC[C@H]1C(N)=O [Compound 21]		18 µM	149 µM	
N=C(N)NCCC[C@H](NC(=O)c1c(O)ccc2ccccc12)C(=O)N1CCC[C@H]1C(N)=O [Compound 15]	0.84 µM			
N=C(N)NCCC[C@H](NC(=O)c1cc2ccccc2cc1O)C(=O)N1CCC[C@H]1C(N)=O [Compound 14]		752 µM	707 µM	
COC(=O)[C@@H]1C[C@@H](O)CN1C(=O)[C@H](CCCNC(=N)N)NC(=O)c1c(O)ccc2ccccc12 [Compound 4]				Ki (Tryptase [1]; Table III, ambient light (no parentheses)): 749 µM
N=C(N)NCCC[C@H](NC(=O)c1ncccc1O)C(=O)N1CCC[C@H]1C(N)=O [Compound 16]		8 µM	63 µM	
N=C(N)NCCC[C@H](NC(=O)c1ccc2ccccc2c1O)C(=O)N1CCC[C@H]1C(=O)N[C@@H](Cc1ccccc1)C(N)=O [Compound 13]		0.6 µM	110 µM	
N=C(N)Nc1ccc(C[C@H](NC(=O)c2ccc3ccccc3c2O)C(=O)N2CCC[C@H]2C(N)=O)cc1 [Compound 10]				Ki (Tryptase [1]; [5]): 2.5 µM; Ki (Tryptase [1]; [6]): 18 µM
N=C(N)NCCC[C@H](NC(=O)c1ccc2ccccc2c1O)C(=O)N1CCC[C@H]1C(=O)N1CCC(C(N)=O)CC1 [Compound 7]	664 µM			
Cc1ccc(C(=O)N[C@@H](CCCNC(=N)N)C(=O)N2CCC[C@H]2C(N)=O)c(O)c1 [Compound 2]	> 500 µM			
N=C(N)NCCC[C@H](NC(=O)c1nc2ccccc2nc1O)C(=O)N1CCC[C@H]1C(N)=O [Compound 9]		23 µM	56 µM	
N=C(N)NCCC[C@H](NC(=O)c1cc(O)ccc1O)C(=O)N1CCC[C@H]1C(N)=O [Compound 20]	20 µM			
CN(C)C(=O)[C@@H]1CCCN1C(=O)[C@H](CCCNC(=N)N)NC(=O)c1c(O)ccc2ccccc12 [Compound 5]	15 µM			
N=C(N)NCCC[C@H](NC(=O)c1ccc2ccccc2c1O)C(=O)N1CCC[C@H]1C(=O)N1CCCC(C(N)=O)C1 (stereo partly shown) [Compound 6]	82 µM			
COC(=O)[C@@H]1CCCN1C(=O)[C@H](CCCNC(=N)N)NC(=O)c1c(O)ccc2ccccc12 [Compound 8]	208 µM			
N=C(N)NCCC[C@H](NC(=O)c1ccccc1O)C(=O)N1CCC[C@H]1C(N)=O [Compound 19]		8 µM	2450 µM	
N=C(N)NCCC[C@H](NC(=O)c1cccnc1O)C(=O)N1CCC[C@H]1C(N)=O [Compound 18]	452 µM			
